Consider three compounds from US7674906B2, “Tetracyclic immunomodulatory compounds” (Active Biotech AB, priority 2002, dated 2010).

For this assay, the target named is T1, CD80-CD 28 interaction (Homo sapiens, UniProt P33681).
T1 sequence (P33681 35-242 limits assumed): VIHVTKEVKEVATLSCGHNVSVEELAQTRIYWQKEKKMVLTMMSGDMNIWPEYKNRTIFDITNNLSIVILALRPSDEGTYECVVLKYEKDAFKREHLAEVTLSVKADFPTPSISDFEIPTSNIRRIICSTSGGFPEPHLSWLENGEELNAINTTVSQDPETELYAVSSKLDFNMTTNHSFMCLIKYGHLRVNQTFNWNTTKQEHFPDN
As to the kind of experiment: cell free Homogenous Time Resolved Fluorescence (HTRF) assay, inhibition of the CD80-CD28 interaction. As to conditions: CD28-mouse Fc fusion protein and CD80 mouse Fab fragment (C215) fusion protein, 4 hours at room temperature, concentration series 100 μM-1.7 nM. The assay is classed as binding. Here is the method: The examples described above were tested in a cell free Homogenous Time Resolved Fluorescence (HTRF) assay to determine their activity as inhibitors of the CD80-CD 28 interaction.
In the assay, europium and allophycocyanin (APC) are associated with CD28 and CD80 indirectly (through anti-body linkers) to form a complex, which brings the europium and APC into close proximity to generate a signal. The complex comprises the following six proteins: fluorescent label 1, linker antibody 1, CD28 fusion protein, CD80 fusion protein, linker antibody 2, and fluorescent label 2. The table below describes these reagents in greater detail.
On formation of the complex, europium and APC are brought into proximity and a signal is generated.
Non-specific interaction was measured by substituting a mouse Fab fragment (C215) for the CD80 mouse Fab fragment fusion protein (1.9 μg/ml). The assay was carried out in black 384 well plates in a final volume of 30 μl. Assay buffer: 50 mM Tris-HCl, 150 mM NaCl pH7.8, containing 0.1% BSA (w/v) added just prior to use.
Compounds were added to the above reagents in a concentration series ranging between 100 μM-1.7 nM. The reaction was incubated for 4 hours at room temperature. Dual measurements were made using a Wallac Victor 1420 Multilabel Counter. First measurement: excitation 340 nm, emission 665 nm, delay 50 μs, window time 200 μs. second measurement: excitation 340 nm, emission 615 nm, delay 50 μs, window time 200 μs. Counts were automatically corrected for fluorescence crossover, quenching and background.
For orientation: IC50 means the concentration needed to halve the response being measured. A low value points to higher potency. As for `O=C(O)c1ccc(-n2nc3c4ccccc4[nH]c(-c4cccc([N+](=O)[O-])c4)c-3c2=O)cc1` [Example 5, 4-[4-(3-Nitro-phenyl)-3-oxo-3,5-dihydro-pyrazolo[4,3-c]-quinolin-2-yl]-benzoic acid], the IC50 came to 8.6 µM. The same measure for `COc1ccc(-c2[nH]c3ccccc3c3nn(-c4ccc(C(=O)O)cc4)c(=O)c2-3)cc1` [Example 7, 4-[4-(4-Methoxyphenyl)-3-oxo-3,5-dihydropyrazolo[4,3-c]-quinolin-2-yl]benzoic acid]: 3.4 µM. The same measure for `COc1ccc(-c2[nH]c3ccccc3c3nn(-c4cccc(C(=O)O)c4)c(=O)c2-3)cc1` [Example 9]: 4.6 µM.
